Where two headings read alike, the source gives them in different places. Bounds are passed on as bounds.

Consider one compound from patent US10022373B2, “Posaconazole pharmaceutical compositions and preparation methods, uses and pharmaceutical formulations thereof” (SINOTHERAPEUTICS INC., priority 2014, dated 2018).

The nature of series [1]: Apparent solubility in phosphate buffer solution pH 6.8. In kind it is physicochemical. Here is the method:
Weighting an excess amount of posaconazole pharmaceutical composition into a container, adding phosphate buffer solution (pH 6.8, about ⅔ of the volume of the container), and then placing the container in a shaking table at 37° C., and shaking for 3 h. Filtering the content with a 0.45 μm filter membrane, collecting the filtrate, diluting it with an appropriate amount of methanol, vortex mixing, and then determining the concentration of posaconazole via the following HPLC method: […]

The nature of series [2]: Dissolution rate, USP II paddle method, simulated in vivo condition. In kind it is physicochemical. The note with it: medium conversion pH 1.2→6.8. Here is the method: Analytical method for dissolution samples: the same as the HPLC method in the above assay of apparent solubility.
It was reported that the pH value in human stomach was about 1.2, and that in human intestine was about 6.8. The dissolution of each of the pharmaceutical compositions of the present invention was determined under a stimulated in vivo condition, and the results are shown in Table 1-3.

For series [3] the following is noted: cited from earlier work.

As for `CC[C@@H]([C@H](C)O)n1ncn(-c2ccc(N3CCN(c4ccc(OC[C@@H]5CO[C@@](Cn6cncn6)(c6ccc(F)cc6F)C5)cc4)CC3)cc2)c1=O` [API, 4-[4-[4-[4-[[(3R,5R)-5-(2,4-difluorophenyl)-5-(1,2,4-triazole-1-ylmethyl)oxolan-3-yl]methoxy]phenyl]piperazin-1-yl]phenyl]-2-[(2S,3S)-2-hydroxypentan-3-yl]-1,2,4-triazol-3-one], the solubility at 3 h in series [1] (aqueous buffer, thermodynamic from solid, phosphate buffer solution pH 6.8, 37° C., shaking 3 h) is below 1 µg/mL. Besides, the “Apparent solubility ratio (composition/API)” value in series [1] (phosphate buffer solution pH 6.8) is 1. Also, the Dissolution was 89.0% in series [2] (pH 1.2, 5 min); 87.0% in series [2] (pH 1.2, 10 min); 98.7% in series [2] (pH 1.2, 30 min); 7.1% in series [2] (pH 6.8, 60 min); 5.6% in series [2] (pH 6.8, 120 min); 5.6% in series [2] (pH 6.8, 180 min). The Solubility result in series [3] (free base form, environment of the stomach pH=˜1.2) is “about 0.8 mg/ml”; in series [3] (pH higher than 4), below 1 µg/mL.

For orientation: solubility means the dissolved amount per volume that the medium holds. As a reminder, the Solubility is the dissolved amount per volume that the medium holds.
